Assay results: ChEMBL document CHEMBL5512659, “Structure optimizing of flavonoids against both MRSA and VRE” (Eur J Med Chem, 2024)
Values after ≈ are worked out from the molar mass of the structure shown. Active and inactive are the calls of the source. The calls are words filed in the database; no cut-off is given here.

Assays:
Enterococcus faecalis [1] = test: Antibacterial activity against multidrug resistant Enterococcus faecalis ATCC 51299 in presence of 140 mM/L Na+ (reference value: 1 ug/ml); type: functional
Enterococcus faecalis [2] = test: Antibacterial activity against multidrug resistant Enterococcus faecalis ATCC 51299 in presence of 2.5 mM/L Ca+ (reference value: 1 ug/ml); type: functional
Enterococcus faecalis [3] = test: Antibacterial activity against Enterococcus faecalis clinical isolate 13; type: functional
Staphylococcus aureus [4] = test: Antibacterial activity against methicillin resistant Staphylococcus aureus clinical isolate 003 in presence of 1 mM/L Mg2+ (reference value: 0.5 ug/ml); type: functional
Enterococcus faecalis [5] = test: Antibacterial activity against multidrug resistant Enterococcus faecalis ATCC 51299 at 2 to 4 times MIC measured after 8 to 12 hrs by time-kill assay; type: functional, organism-based; settings: time 8-12 hrs
Enterococcus faecalis [6] = test: Antibacterial activity against multidrug resistant Enterococcus faecalis ATCC 51299 in presence of 1 mM/L Mg2+ (reference value: 1 ug/ml); type: functional
Cell membrane [7] = test: Induction of cell membrane damage in methicillin resistant Staphylococcus aureus clinical isolate 003 assessed as increase in red fluorescence at 2 to 4 times MIC by PI staining based analysis; type: cell membranes
Cell membrane [8] = test: Induction of membrane depolarization in methicillin resistant Staphylococcus aureus clinical isolate 003 assessed as increase in fluorescence intensity at 2 to 4 times MIC by DiSC3(5) dye based analysis
Cell membrane [9] = test: Induction of membrane depolarization in multidrug resistant Enterococcus faecalis ATCC 51299 assessed as increase in fluorescence intensity at 2 to 4 times MIC by DiSC3(5) dye based analysis
Cell membrane [10] = test: Disruption of membrane permeability in methicillin resistant Staphylococcus aureus clinical isolate 003 assessed as increase in fluorescence intensity at 4 to 8 times MIC by PI staining based analysis
Enterococcus faecalis [11] = test: Antibacterial activity against multidrug resistant Enterococcus faecalis ATCC 51299 in presence of 4.5 mM/L K+ (reference value: 1 ug/ml); type: functional
Cell membrane [12] = test: Induction of cell membrane damage in methicillin resistant Staphylococcus aureus clinical isolate 003 assessed as bacterial death at 2 to 4 times MIC by confocal laser scanning microscopy; type: cell membranes
Enterococcus faecalis [13] = test: Antibacterial activity against multidrug resistant Enterococcus faecalis ATCC 51299; type: functional
Cell membrane [14] = test: Induction of cell membrane damage in methicillin resistant Staphylococcus aureus clinical isolate 003 assessed as increase in green fluorescence at 2 to 4 times MIC by SYTOX Green dye based analysis; type: cell membranes
Staphylococcus aureus [15] = test: Antibacterial activity in methicillin resistant Staphylococcus aureus clinical isolate 003 at sub-MIC measured after 20 passages; type: functional, organism-based
Staphylococcus aureus [16] = test: Antibacterial activity against methicillin resistant Staphylococcus aureus clinical isolate 003 in presence of 1 mM/L Mg2+ (reference value: 1 ug/ml); type: functional
Enterococcus faecalis [17] = test: Antibacterial activity against multidrug resistant Enterococcus faecalis ATCC 51299 in presence of 2.5 mM/L Ca+ (reference value: 32 ug/ml); type: functional
[18] = Cytotoxicity against human L02 cells assessed as cell viability at 64 ug/ml measured after 48 hrs relative to control; type: toxicity, cell-based; settings: at 64 µg/mL, read-out: Activity
Staphylococcus aureus [19] = test: Additive antibacterial activity against methicillin resistant Staphylococcus aureus clinical isolate 003 assessed as fractional inhibitory concentration in presence of chloramphenicol; type: functional
Enterococcus faecalis [20] = test: Additive antibacterial activity against multidrug resistant Enterococcus faecalis ATCC 51299 assessed as fractional inhibitory concentration in presence of chloramphenicol; type: functional
Enterococcus faecalis [21] = test: Additive antibacterial activity against multidrug resistant Enterococcus faecalis ATCC 51299 assessed as fractional inhibitory concentration in presence of lincomycin hydrochloride; type: functional
Staphylococcus aureus [22] = test: Antibacterial activity against methicillin resistant Staphylococcus aureus clinical isolate 003 infected in cyclophosphamide immunosuppressed mouse model of skin wound infection assessed as increase in wound healing by measuring increase in VEGF expression at 1.25 to 5 mg/kg administered for 7 days and measured on day 8 by immunohistochemical analysis; type: functional, organism-based; settings: dose 1.25-5 mg/kg, time 8.0 day
Enterococcus faecalis [23] = test: Antibacterial activity against multidrug resistant Enterococcus faecalis ATCC 51299 infected in cyclophosphamide immunosuppressed mouse model of abdominal infection assessed as eradication of bacterial colonies in liver at 1.25 to 5 mg/kg measured after 60 hrs relative to control; type: functional; settings: dose 1.25-5 mg/kg
Enterococcus faecalis [24] = test: Antibacterial activity against multidrug resistant Enterococcus faecalis ATCC 51299 infected in cyclophosphamide immunosuppressed mouse model of abdominal infection assessed as reduction in cell swelling at 1.25 to 5 mg/kg measured after 60 hrs by H and E staining based analysis; type: functional, organism-based; settings: dose 1.25-5 mg/kg
Staphylococcus aureus [25] = test: (§1) Antibacterial activity against methicillin resistant Staphylococcus aureus clinical isolate 003 infected in cyclophosphamide immunosuppressed mouse model of skin wound infection assessed as wound healing at 1.25 to 5 mg/kg administered for 7 days and measured on day 8; type: functional, organism-based; settings: dose 1.25-5 mg/kg, time 8.0 day
Enterococcus faecalis [26] = test: Synergistic antibacterial activity against multidrug resistant Enterococcus faecalis ATCC 51299 assessed as fractional inhibitory concentration in presence of ampicillin; type: functional
Staphylococcus aureus [27] = test: as §1, with “healing by measuring wound area” for “healing”, “at” for “at 1.25 to”, “8 (reference value: 32.1 […])” for “8”; type: functional; settings: time 8 day
Enterococcus faecalis [28] = test: Antibacterial activity against multidrug resistant Enterococcus faecalis ATCC 51299 infected in cyclophosphamide immunosuppressed mouse model of abdominal infection assessed as reduction in inflammatory infiltration at 1.25 to 5 mg/kg measured after 60 hrs by H and E staining based analysis; type: functional, organism-based; settings: dose 1.25-5 mg/kg
Enterococcus faecalis [29] = test: Additive antibacterial activity against multidrug resistant Enterococcus faecalis ATCC 51299 assessed as fractional inhibitory concentration in presence of norfloxacin; type: functional
[30] = Cytotoxicity against HEK293T cells assessed as cell viability at 64 ug/ml measured after 48 hrs relative to control; type: toxicity, cell-based, HEK-293T; settings: human, at 64 µg/mL, read-out: Activity
Staphylococcus aureus [31] = test: Antibacterial activity against methicillin resistant Staphylococcus aureus clinical isolate 003 in presence of 1 mM/L Mg2+ (reference value: 0.25 ug/ml); type: functional
Enterococcus faecalis [32] = test: Additive antibacterial activity against multidrug resistant Enterococcus faecalis ATCC 51299 assessed as fractional inhibitory concentration in presence of streptomycin; type: functional
Enterococcus faecalis [33] = test: Antibacterial activity against multidrug resistant Enterococcus faecalis ATCC 51299 infected in cyclophosphamide immunosuppressed mouse model of abdominal infection assessed as reduction in cell degeneration at 1.25 to 5 mg/kg measured after 60 hrs by H and E staining based analysis; type: functional, organism-based; settings: dose 1.25-5 mg/kg
Enterococcus faecalis [34] = test: Synergistic antibacterial activity against multidrug resistant Enterococcus faecalis ATCC 51299 assessed as fractional inhibitory concentration in presence of adriamycin hydrochloride; type: functional
Enterococcus faecalis [35] = test: Antibacterial activity against multidrug resistant Enterococcus faecalis ATCC 51299 infected in cyclophosphamide immunosuppressed mouse model of abdominal infection assessed as eradication of bacterial colonies in spleen at 1.25 to 5 mg/kg measured after 60 hrs relative to control; type: functional; settings: dose 1.25-5 mg/kg
Enterococcus faecalis [36] = test: Antibacterial activity against multidrug resistant Enterococcus faecalis ATCC 51299 infected in cyclophosphamide immunosuppressed mouse model of abdominal infection assessed as reduction in abscess at 1.25 to 5 mg/kg measured after 60 hrs by H and E staining based analysis; type: functional, organism-based; settings: dose 1.25-5 mg/kg
Staphylococcus aureus [37] = test: Synergistic antibacterial activity against methicillin resistant Staphylococcus aureus clinical isolate 003 assessed as fractional inhibitory concentration in presence of streptomycin; type: functional

## CCCCCCc1c(-c2ccc(OCCCCN(C)C)cc2OCCCCN(C)C)oc2cc(OC)cc(O)c2c1=O
Enterococcus faecalis [1]
  MIC: 1 µg/mL
Enterococcus faecalis [2]
  MIC: 1 µg/mL
Enterococcus faecalis [3]
  MIC: 1 µg/mL (≈ 1.72 µM)
Staphylococcus aureus [4]
  MIC: 0.5 µg/mL
Enterococcus faecalis [5]
  Activity: Active
Enterococcus faecalis [6]
  MIC: 1 µg/mL
Cell membrane [7]
  Activity: Active
Cell membrane [8]
  Activity: Dose-Dependent Effect
Cell membrane [9]
  Activity: Dose-Dependent Effect
Cell membrane [10]
  Activity: Active
Enterococcus faecalis [11]
  MIC: 1 µg/mL
Cell membrane [12]
  Activity: Active
Enterococcus faecalis [13]
  MIC: 1 µg/mL (≈ 1.72 µM)
Cell membrane [14]
  Activity: Active
Staphylococcus aureus [15]
  Activity: Active

## CCCCCCc1c(-c2ccc(OCC(=O)CN[C@H](CCCNC(=N)N)C(=O)OC)cc2OCC(=O)CN[C@H](CCCNC(=N)N)C(=O)OC)oc2cc(OC)cc(O)c2c1=O
Staphylococcus aureus [16]
  MIC: 1 µg/mL
Enterococcus faecalis [3]
  MIC: 32 µg/mL (≈ 36.8 µM)
Enterococcus faecalis [5]
  Activity: Active
Cell membrane [7]
  Activity: Active
Cell membrane [8]
  Activity: Dose-Dependent Effect
Cell membrane [9]
  Activity: Dose-Dependent Effect
Cell membrane [10]
  Activity: Active
Cell membrane [12]
  Activity: Active
Enterococcus faecalis [13]
  MIC: 32 µg/mL (≈ 36.8 µM)
Cell membrane [14]
  Activity: Active
Enterococcus faecalis [17]
  MIC: 32 µg/mL
Staphylococcus aureus [15]
  Activity: Active

## CCCCCCc1c(-c2ccc(OCCCCNCCCN)cc2OCCCCNCCCN)oc2cc(OC)cc(O)c2c1=O
Enterococcus faecalis [1]
  MIC: 1 µg/mL
[18]
  viability at 48 h, 64 ug/ml: > 50%
Staphylococcus aureus [19]
  fractional inhibitory concentration index (FICI): 1
Enterococcus faecalis [20]
  fractional inhibitory concentration index (FICI): 0.75
Enterococcus faecalis [21]
  fractional inhibitory concentration index (FICI): 1
Staphylococcus aureus [22]
  Activity: Active
Enterococcus faecalis [23]
  Activity: 97%
Enterococcus faecalis [2]
  MIC: 1 µg/mL
Enterococcus faecalis [24]
  Activity: Active
Enterococcus faecalis [3]
  MIC: 0.5 µg/mL (≈ 0.78 µM)
Staphylococcus aureus [25]
  Activity: Active
Enterococcus faecalis [5]
  Activity: Active
Enterococcus faecalis [26]
  fractional inhibitory concentration index (FICI): 0.375
Enterococcus faecalis [6]
  MIC: 1 µg/mL
Staphylococcus aureus [27]
  Activity: 2.1 mm²
Cell membrane [7]
  Activity: Active
Enterococcus faecalis [28]
  Activity: Active
Enterococcus faecalis [29]
  fractional inhibitory concentration index (FICI): 1
[30]
  viability at 48 h, 64 ug/ml: > 50%
Staphylococcus aureus [31]
  MIC: 0.25 µg/mL
Cell membrane [8]
  Activity: Dose-Dependent Effect
Cell membrane [9]
  Activity: Dose-Dependent Effect
Cell membrane [10]
  Activity: Active
Enterococcus faecalis [11]
  MIC: 1 µg/mL
Cell membrane [12]
  Activity: Active
Enterococcus faecalis [32]
  fractional inhibitory concentration index (FICI): 0.75
Enterococcus faecalis [33]
  Activity: Active
Enterococcus faecalis [34]
  fractional inhibitory concentration index (FICI): 0.5
Enterococcus faecalis [13]
  MIC: 1 µg/mL (≈ 1.56 µM)
Cell membrane [14]
  Activity: Active
Staphylococcus aureus [15]
  Activity: Active
Enterococcus faecalis [35]
  Activity: 95.5%
Enterococcus faecalis [36]
  Activity: Active
Staphylococcus aureus [37]
  fractional inhibitory concentration index (FICI): 0.375
